Assay: xn = mol fraction of the nth substance listed
Details: Liquid, Vibrating tube method

CCCCCCCCCC [decane] + CCCCCCCC
Details | mass density [kg/m3]
313.19 K, 10000 kPa, x2 = 0.5314 | 710.43
313.19 K, 10000 kPa, x2 = 0.7736 | 703.28
313.19 K, 10990 kPa, x2 = 0.5314 | 711.26
313.19 K, 10990 kPa, x2 = 0.7736 | 704.16
313.19 K, 12000 kPa, x2 = 0.5314 | 712.06
313.19 K, 12000 kPa, x2 = 0.7736 | 705
313.19 K, 13000 kPa, x2 = 0.5314 | 712.86
313.19 K, 13000 kPa, x2 = 0.7736 | 705.81
313.19 K, 14000 kPa, x2 = 0.5314 | 713.65
313.19 K, 14000 kPa, x2 = 0.7736 | 706.63
313.19 K, 15000 kPa, x2 = 0.5314 | 714.44
313.19 K, 15000 kPa, x2 = 0.7736 | 707.47
313.19 K, 16000 kPa, x2 = 0.5314 | 715.21
313.19 K, 16000 kPa, x2 = 0.7736 | 708.28
313.19 K, 17000 kPa, x2 = 0.5314 | 715.97
313.19 K, 17000 kPa, x2 = 0.7736 | 709.1
313.19 K, 18000 kPa, x2 = 0.5314 | 716.73
313.19 K, 18000 kPa, x2 = 0.7736 | 709.83
313.19 K, 19000 kPa, x2 = 0.5314 | 717.47
313.19 K, 19000 kPa, x2 = 0.7736 | 710.61
313.19 K, 20000 kPa, x2 = 0.5314 | 718.2
313.19 K, 20000 kPa, x2 = 0.7736 | 711.34
313.19 K, 21000 kPa, x2 = 0.5314 | 718.89
313.19 K, 21000 kPa, x2 = 0.7736 | 712.07
313.19 K, 22000 kPa, x2 = 0.5314 | 719.56
313.19 K, 22000 kPa, x2 = 0.7736 | 712.79
313.19 K, 23000 kPa, x2 = 0.5314 | 720.23
313.19 K, 23000 kPa, x2 = 0.7736 | 713.47
313.19 K, 24000 kPa, x2 = 0.5314 | 720.88
313.19 K, 24000 kPa, x2 = 0.7736 | 714.14
313.19 K, 25000 kPa, x2 = 0.5314 | 721.52
313.19 K, 25000 kPa, x2 = 0.7736 | 714.77
323.13 K, 1000 kPa, x2 = 0.2801 | 701.5
323.13 K, 2000 kPa, x2 = 0.2801 | 702.42
323.13 K, 3000 kPa, x2 = 0.2801 | 703.33
323.13 K, 4000 kPa, x2 = 0.2801 | 704.26
323.13 K, 5000 kPa, x2 = 0.2801 | 705.16
323.13 K, 6000 kPa, x2 = 0.2801 | 706.06
323.13 K, 7000 kPa, x2 = 0.2801 | 706.95
323.13 K, 8000 kPa, x2 = 0.2801 | 707.83
323.13 K, 9000 kPa, x2 = 0.2801 | 708.7
323.13 K, 10000 kPa, x2 = 0.2801 | 709.57
323.13 K, 10990 kPa, x2 = 0.2801 | 710.5
323.13 K, 12000 kPa, x2 = 0.2801 | 711.29
323.13 K, 13000 kPa, x2 = 0.2801 | 712.12
323.13 K, 14000 kPa, x2 = 0.2801 | 712.97
323.13 K, 15000 kPa, x2 = 0.2801 | 713.78
323.13 K, 16000 kPa, x2 = 0.2801 | 714.58
323.13 K, 17000 kPa, x2 = 0.2801 | 715.38
323.13 K, 18000 kPa, x2 = 0.2801 | 716.14
323.13 K, 19000 kPa, x2 = 0.2801 | 716.9
323.13 K, 20000 kPa, x2 = 0.2801 | 717.66
323.13 K, 21000 kPa, x2 = 0.2801 | 718.38
323.13 K, 22000 kPa, x2 = 0.2801 | 719.06
323.13 K, 23000 kPa, x2 = 0.2801 | 719.71
323.13 K, 24000 kPa, x2 = 0.2801 | 720.38
323.13 K, 25000 kPa, x2 = 0.2801 | 721
323.15 K, 1000 kPa, x2 = 0.5314 | 694.85
323.15 K, 1000 kPa, x2 = 0.7736 | 687.38
323.15 K, 1000 kPa, x2 = 0.9623 | 680.8
323.15 K, 2000 kPa, x2 = 0.5314 | 695.78
323.15 K, 2000 kPa, x2 = 0.7736 | 688.41
323.15 K, 2000 kPa, x2 = 0.9623 | 681.8
323.15 K, 3000 kPa, x2 = 0.5314 | 696.73
323.15 K, 3000 kPa, x2 = 0.7736 | 689.33
323.15 K, 3000 kPa, x2 = 0.9623 | 682.74
323.15 K, 4000 kPa, x2 = 0.5314 | 697.62
323.15 K, 4000 kPa, x2 = 0.7736 | 690.27
323.15 K, 4000 kPa, x2 = 0.9623 | 683.68
323.15 K, 5000 kPa, x2 = 0.5314 | 698.58
323.15 K, 5000 kPa, x2 = 0.7736 | 691.21
323.15 K, 5000 kPa, x2 = 0.9623 | 684.65
323.15 K, 6000 kPa, x2 = 0.5314 | 699.53
323.15 K, 6000 kPa, x2 = 0.7736 | 692.18
323.15 K, 6000 kPa, x2 = 0.9623 | 685.6
323.15 K, 7000 kPa, x2 = 0.5314 | 700.45
323.15 K, 7000 kPa, x2 = 0.7736 | 693.12
323.15 K, 7000 kPa, x2 = 0.9623 | 686.57
323.15 K, 8000 kPa, x2 = 0.5314 | 701.36
323.15 K, 8000 kPa, x2 = 0.7736 | 694.08
323.15 K, 8000 kPa, x2 = 0.9623 | 687.54
323.15 K, 9000 kPa, x2 = 0.5314 | 702.24
323.15 K, 9000 kPa, x2 = 0.7736 | 694.99
323.15 K, 9000 kPa, x2 = 0.9623 | 688.5
323.15 K, 10000 kPa, x2 = 0.5314 | 703.12
323.15 K, 10000 kPa, x2 = 0.7736 | 695.89
323.15 K, 10000 kPa, x2 = 0.9623 | 689.46
323.15 K, 10990 kPa, x2 = 0.5314 | 703.99
323.15 K, 10990 kPa, x2 = 0.7736 | 696.8
323.15 K, 10990 kPa, x2 = 0.9623 | 690.4
323.15 K, 12000 kPa, x2 = 0.5314 | 704.86
323.15 K, 12000 kPa, x2 = 0.7736 | 697.73
323.15 K, 12000 kPa, x2 = 0.9623 | 691.34
323.15 K, 13000 kPa, x2 = 0.5314 | 705.72
